Test results reported in article PMC9013686, “Inter-individual variation in chlorpyrifos toxicokinetics characterized by physiologically based kinetic (PBK) and Monte Carlo simulation comparing human liver microsome and Supersome™ cytochromes P450 (CYP)-specific kinetic data as model input” (Archives of Toxicology, 2022).

Experiment: PBK modelling with Monte Carlo simulation (Supersome-based and HLM-based)
Design: species or system human
Details: oral 0.5 mg/kg bw CPF, in vivo data Nolan et al. [1984]
From the text: Compared to the PBK model of Zhao et al. ([2019]), only the fractional absorption was changed to 0.462, which is the mean value of reported fa values from Timchalk et al. ([2002]) (fa = 0.224) and Nolan et al. ([1984]) (fa = 0.7), while for the other model parameters (non-kinetic), the mean values as reported in Zhao et al. ([2019]) were used.
Compared to the model of Zhao et al. ([2019]), in the Supersome™-based PBK model approach, the kinetic parameters of pathway 1 and pathway 2 were replaced from HLM-derived values to Supersome™-derived values, while the kinetic parameters of pathway 3 were kept the same. For pathway 4, instead of using the reported kinetic parameters from Mosquin et al. ([2009]), the calculated mean values of kinetic parameters obtained based on 25 individual HP samples derived by the present study were used. […]
The performance of the Supersome™-based PBK model and the HLM-based PBK model (biphasic) were evaluated by comparing their predicted time-dependent TCPy and CPF blood concentrations including the maximum total (bound and unbound) blood concentration (Cmax) or time-dependent blood concentration, and the cumulative time-dependent urinary TCPy excretion with corresponding available in vivo data (Drevenkar et al. [1993]; Nolan et al. [1984]; Timchalk et al. [2002]) upon similar dosing regimens or estimated dose level. […]

SMILES: Oc1nc(Cl)c(Cl)cc1Cl [TCPy, 3,5,6-trichloro-2-pyridinol]
- predicted blood Cmax versus mean in vivo Cmax (both PBK models): 2.2 fold
- predicted urinary excretion at 120 h versus in vivo value: 0.8 fold
